According to patent publication US20230321171A1, “ANTI-COCCIDIAL COMPOSITION COMPRISING MANGOSTEEN AND USES THEREOF” (CJ CHEILJEDANG CORPORATION, priority 2020, published 2023):

How the values were obtained:
[1] = tested on: MDBK(Madin-Darby Bovine Kidney Epithelial Cells); assay: Cytotoxicity, MTS analysis, MDBK; conditions: 3.1~500 ppm/well, 14 hours + 2 hours MTS, vs 5% DMSO treatment group
Excerpt: In the present example, using MTS analysis method (3-(4,5-[…])-5-(3-carboxymethoxyphenyl)-2-(4-sulfophenyl)-2H-tetrazolium, promega, USA), an effect on survival of cells of the mangosteen extract was investigated.
The cell lines utilized in cytotoxicity evaluation were (1) MDBK(Madin-Darby Bovine Kidney Epithelial Cells) and (2) RAW264.7(Mouse macrophage cell), and all of them were purchased from ATCC and used.
Each cell was aliquoted at a concentration of 1×10^5 cell/well in a 96-well cell culture plate, and cultured at 37° C. for 24 hours, and then each material (mangosteen extract, xanthone, alpha-mangostin and epicatechin) was treated by concentration (3.1˜500 ppm/well) and cultured at a temperature of 37° C.

[2] = tested on: Eimeria acervulina; assay: Protozoan (sporozoite) direct killing ability, Eimeria acervulina; type: cell-based; conditions: for Eimeria acervulina protozoal death rate (%): compared to PBS-treated negative control group; for Minimum concentration for killing 100% protozoa (ppm), Eimeria acervulina: tested 1 to 500 ppm
Procedure: (§1) In the present example, protozoan (sporozoite) direct killing ability evaluation was conducted against 3 representative Eimeria kinds known to be infected in most farms (E. tenella, E. acervulina, E. maxima).
(§2) A certain amount of oocysts of each protozoan was put in a tube containing glass beads and pulverized, and then to remove the crushed oocyst cell wall and other debris, internal sporocysts were purified using the percoll density gradient, and washed with PBS solution. A reagent comprising sodium taurocholic acid (Sigma aldrich, USA) and trypsin (Gibco, USA), respectively, was treated to sporocysts of Eimeria tenella, Eimeria acervulina and Eimeria maxima for excystation and they were incubated, and then they were washed with PBS solution once and protozoa were obtained.
(§3) After reacting the mangosteen pericarp extract, epicatechin, alpha-mangostin, xanthone and anticoccidial agents, salinomycin and diclazuril (hereinafter, material) with 3 kinds of Eimeria protozoa at various concentrations of 1 to 500 ppm, respectively, only alive protozoa (sporozoites) were counted through microscopic observation. Then, the death rate (%) of the protozoa when each material was treated compared to the PBS-treated negative control group was calculated and shown in Table 8 to Table 10 and Table 12, respectively, and the minimum concentration which directly killed the protozoa by 100% was shown in Table 11 below.

[3] = tested on: Eimeria tenella; assay: In vivo anticoccidial efficacy evaluation in broilers challenge-inoculated with Eimeria tenella; parameters: species or system Ross broilers
Procedure: An in vivo anticoccidial efficacy evaluation test was performed in an animal experiment facility in Gyeongsangnam-do, South Korea. One-day-old female Ross broilers were individually weighed and randomly divided into groups to use in an experiment. Matters and conditions for experimental design were described in Table 2.
A breeding farm was managed according to the Korean poultry breeding management guidelines. Cages and the breeding farm were cleaned and disinfected before starting the test. The temperature of […] and the humidity of 40 to 50% of the breeding farm were maintained, and it was continuously monitored.
For the feed, Korea Feed Al-choi product was used, and each material (salinomycin (Cheil Bio Cheilsalino-60 product), xanthone (Sigma Aldrich X600 product), and the mangosteen extract prepared in Example 1-2 above) was added to the feed, respectively, at a concentration described in Table 3 below to be self-mixed. Antibiotics and supplements were not used in general feed and mixed feed, and no anticoccidial agent other than each material was added. Broilers were fed ad libitum throughout the experiment period. After putting 20 1-day-age broilers in cages randomly placed for each of the control group or test group and breeding, general feed was fed for 7 days, and then the mixed feed prepared above was ingested by dividing by control group or test group.
The feed formulation administered to the control group (negative control group or positive control group) and test group and whether coccidiosis was induced by Eimeria tenella were described in Table 3 below. 20 1-day-old broilers were put in a cage randomly arranged for each test group, and after 7 days of feeding the general feed, the formulated feed as described in Table 3 was divided into each test group and ingested.
14-day-old broilers were orally inoculated with 10,000 oocysts (90% sporulated Eimeria tenella oocysts) per individual to induce coccidiosis.
The anticoccidial efficacy by test group designed in Example 1-3 above was shown as an anticoccidial index (ACI), and the anticoccidial index was calculated by Equation 2 below. The ACI score is out of 200 points, and the higher the ACI score, the more excellent the anticoccidial ability, and when it is 120 points or more to less than 140 points, it is determined that it is effective as an anticoccidial material, and when it is 140 points or more to less than 160 points, it is determined that it is excellent as an anticoccidial material, and when it is 160 points or more, it is determined that the anticoccidial effect is very excellent. (Luis Miguel De Pablos et al., Anticoccidial activity of maslinic acid against infection with Eimeria tenella in chickens, Parasitol Res, 2010)
Anticoccidial index (ACI)=(survival rate after challenge inoculation (%))+(daily weight gain compared to negative control group (RWG, %))−(lesion score×10)−(fecal oocyst excretion amount index) (Equation 2)
1) Survival rate: the number of dead individuals was recorded daily, and post mortem autopsy was performed to determine a cause of mortality, and the number of individuals who died due to causes other than coccidiosis was excluded. The survival rate (%) up to the 8th day after challenge inoculation was used for anticoccidial index calculation.
2) Daily weight gain: body weight was measured for each cage before challenge inoculation with a protozoan into an individual and at the 7th day after challenge inoculation, and the difference was divided by the number of days to calculate the daily weight gain (ADG, g/d). ‘Daily weight gain compared to the negative control group (RWG, %)’which was calculated by dividing the daily weight gain (ADG, average daily gain; g/d) of each experimental group by the weight gain (ADG, g/d) of the non-infected negative control group and multiplying by 100 was used for anticoccidial index calculation. […]

[4] = tested on: Eimeria maxima; assay: Protozoan (sporozoite) direct killing ability, Eimeria maxima; type: cell-based; conditions: for Eimeria maxima protozoal death rate (%): compared to PBS-treated negative control group
Procedure: as §1, §2, §3

O=c1c2ccccc2oc2ccccc12 [Xanthone, xanthone]
Minimum concentrataion of cytotoxicity at which cells of 50% or more survive (ppm) [1]: ≥62.5 ppm | Eimeria acervulina protozoal death rate (%) ([2]; 1 ppm): 0% | Eimeria acervulina protozoal death rate (%) ([2]; 5 ppm): 0% | Eimeria acervulina protozoal death rate (%) ([2]; 10 ppm): 0% | Eimeria acervulina protozoal death rate (%) ([2]; 50 ppm): 0% | Eimeria acervulina protozoal death rate (%) ([2]; 100 ppm): 0% | Eimeria acervulina protozoal death rate (%) ([2]; 125 ppm): 0% | Eimeria acervulina protozoal death rate (%) ([2]; 250 ppm): 11% | Eimeria acervulina protozoal death rate (%) ([2]; 500 ppm): 25% | Minimum concentration for killing 100% protozoa (ppm), Eimeria acervulina [2]: >500 ppm | Minimum concentration for killing 100% protozoa (ppm), Eimeria acervulina ([2]; listed as xanthone): > 500 ppm | Intermediate body weight (14-day-old, before challenge inoculation) ([3]; formulated feed 62.5 ppm from day 7, female Ross broilers): 470.9 | Appendix lesion score ([3]; formulated feed 62.5 ppm, 8th day after challenge inoculation, scale of 0-4): 2.4 | End body weight (21-day-old, on the 7th day of challenge inoculation) ([3]; formulated feed 62.5 ppm, 10,000 E. tenella oocysts oral at 14 days): 887.0 | Day 14~Day 21 ADG (daily weight gain) ([3]; formulated feed 62.5 ppm, E. tenella infected broilers): 56.42 g/day | Anticoccidial index (ACI) ([3]; formulated feed 62.5 ppm, Equation 2, out of 200 points): 122 | Oocyst excretion amount/gram ([3]; formulated feed 62.5 ppm, feces of 6~8th day of challenge inoculation, McMaster chamber): 1.80E+08 /gram | RWG (daily weight gain compared to the negative control group) ([3]; formulated feed 62.5 ppm, relative to non-infected negative control group): 85% | Eimeria maxima protozoal death rate (%) ([4]; 1 ppm): 0% | Eimeria maxima protozoal death rate (%) ([4]; 5 ppm): 0% | Eimeria maxima protozoal death rate (%) ([4]; 10 ppm): 0% | Eimeria maxima protozoal death rate (%) ([4]; 50 ppm): 0% | Eimeria maxima protozoal death rate (%) ([4]; 100 ppm): 0% | Eimeria maxima protozoal death rate (%) ([4]; 125 ppm): 0% | Eimeria maxima protozoal death rate (%) ([4]; 250 ppm): 5% | Eimeria maxima protozoal death rate (%) ([4]; 500 ppm): 12% | Minimum concentration for killing 100% protozoa (ppm), Eimeria maxima ([4]; tested 1 to 500 ppm): >500 ppm
